Results from ChEMBL document CHEMBL1150945, “New p-terphenyl and polyketide metabolites from the sclerotia of Penicillium raistrickii” (1998).
Active and inactive are the calls of the source. No cut-off for these calls is given here.

Legend:
Candida albicans = experiment: Antifungal activity against Candida albicans ATCC 14053 at 200 ug/disk by standard disk assay; type: functional, organism-based
Helicoverpa zea [1] = experiment: Insecticidal activity against corn ear worm larvae at 400 to 500 ppm relative to control; type: functional
Carpophilus = experiment: Antiinsectan activity against Carpophilus hemipterus assessed as reduction in feeding rate at 400 to 500 ppm relative to control; type: functional; set-up: scale not given: the % may be the effect or the level left
Helicoverpa zea [2] = experiment: Insecticidal activity against corn ear worm larvae at 500 ppm relative to control; type: functional
Staphylococcus aureus = experiment: Antibacterial activity against Staphylococcus aureus ATCC 29213 at 200 ug/disk by standard disk assay; type: functional; conditions: read-out: IZ
Bacillus subtilis = experiment: Antibacterial activity against Bacillus subtilis ATCC 6051 at 200 ug/disk by standard disk assay; type: functional; conditions: read-out: IZ

Structure (SMILES) | Activity (Candida albicans) | Activity (Helicoverpa zea [1]) [%] | Activity (Carpophilus) [%] | Activity (Helicoverpa zea [2]) [%] | zone of inhibition at 200 µg/disc (Staphylococcus aureus) [mm] | zone of inhibition at 200 µg/disc (Bacillus subtilis) [mm]
COc1c(-c2ccc(O)c(O)c2)cc(O)c2c1oc1cc(O)c(O)cc12 | inactive | – | – | – | – | –
COC1=CC(=O)C[C@@H](C)[C@]12Oc1c(Cl)c(OC)cc(OC)c1C2=O [GRISEOFULVIN] | – | 70 | 30 | – | – | –
COc1c(-c2ccc(O)c(O)c2)cc(O)c(-c2ccc(O)c(O)c2)c1O | inactive | – | – | 28 | 13 | –
Cc1cc(O)c(O)c2oc3cc(O)cc(O)c3c(=O)c12 | inactive | – | – | – | 11 | 12
